Assay results reported in PMC7795597 (2020).

Tests used:
[1] = system: kit* (DNA, G4) GGCGAGGAGGGGCGTGGCCGGC; test: CD titration; conditions: K+ (150 mM in Methods, 100 mM in Figure S3 legend); 10 mM Tris, pH 7.5, 25 °C; 4 µM DNA
[2] = system: kit2-kit* (DNA, G4) CGGGCGGGCGCGAGGGAGGGGAGGCGAGGAGGGGCGTGGCCGGC; test: CD titration; conditions: K+ (150 mM in Methods, 100 mM in Figure S3 legend); 10 mM Tris, pH 7.5, 25 °C; 4 µM DNA
[3] = system: kit*8AP (DNA, G4, 2-aminopurine at 8 (replaces A)) GGCGAGGAGGGGCGTGGCCGGC; test: 2-aminopurine fluorescence titration; conditions: 150 mM K+; 10 mM Tris, pH 7.5, 25 °C; apparent; 0.5 µM DNA, single-site fit
[4] = system: kit* (DNA, G4) GGCGAGGAGGGGCGTGGCCGGC; test: SPR steady state; conditions: 150 mM K+; 10 mM Tris, pH 7.5, 25 °C; apparent; one-site plus non-specific fit; DMSO < 1%
[5] = system: kit*5AP (DNA, G4, 2-aminopurine at 5 (replaces A)) GGCGAGGAGGGGCGTGGCCGGC; test: 2-aminopurine fluorescence titration; conditions: 150 mM K+; 10 mM Tris, pH 7.5, 25 °C; apparent; 0.5 µM DNA, single-site fit

For `C(=NNC1=NCCN1)c1cccc2cc3cccc(C=NNC4=NCCN4)c3cc12`, the binding [1] was “yes”, the binding [2] was “yes” and the Kd [3] was 1.78 ± 0.15 µM. For the same compound, the Kd [4] was 6.71 ± 1.26 µM and the Kd [5] was 2.24 ± 0.17 µM.

In the case of `NCCCC[C@H](N)C(=O)NCCC(=O)Nc1cccc2c1C(=O)c1cccc(NC(=O)CCNC(=O)[C@@H](N)CCCCN)c1C2=O`, the binding [1] is reported as “yes”, the binding [2] is reported as “yes” and the Kd [3] is reported as 0.31 ± 0.02 µM. For the same compound, the Kd [4] was 0.51 ± 0.09 µM and the Kd [5] was 0.32 ± 0.02 µM.
